Legend:
[1] = test system: Mitomycin-induced toxicity (leukocyte depletion); assay: Leukocyte depletion induced by mitomycin C in mice; type: in vivo; conditions: mitomycin C 50 μg/mouse peritoneal for five days, alone or with isovaleryl L-carnitine 30 mg/mouse and/or β-glucan 10 mg/mouse; for No. leukocytes after 5 days: day 5; for No. leukocytes after 10 days: day 10; for No. leukocytes after 12 days: day 12
Description: (§1) In these tests a first group of mice received peritoneal injections of 50 μg/mouse of mitomycin C for five consecutive days. In addition to mitomycin, a second group of animals were also injected with isovaleryl L-carnitine alone (30 mg/mouse), a third group with β-glucan alone (10 mg/mouse) and a fourth group with a combination of the two compounds for five consecutive days. On the fifth, tenth and twelfth day following the start of treatment, the number of leukocytes present in the blood and the mortality rates of the animals were evaluated in both treated and control animals.

[2] = test system: Mitomycin-induced toxicity (mortality); assay: Mortality induced by mitomycin C in mice; type: in vivo; conditions: for % animals surviving after 5 days / % animals surviving after 10 days / % animals surviving after 12 days (survival rate): mitomycin C 50 μg/mouse peritoneal for five days, alone or with isovaleryl L-carnitine 30 mg/mouse and/or β-glucan 10 mg/mouse; for % animals surviving after 5 days: day 5; for % animals surviving after 10 days: day 10; for % animals surviving after 12 days (survival rate): day 12
Description: Results of Tests Regarding the Immunostimulant and Protective Effect exerted against Mitomycin-induced Toxicity by the Combination of Isovaleryl L-carnitine and β-glucan
as §1

[3] = test system: human macrophages from bronchoalveolar lavage fluid; assay: Macrophage stimulation test (phagocytosis and intracellular killing); type: cell-based
Description: After filtration, centrifuging and gradient separation on Ficoll, the viability of the cells was evaluated with the trypan blue test. Phagocytosis and intracellular killing were calculated according to the method described by […]. Bacterial, 98:996, 1969).

Compound | No. leukocytes after 5 days [1] | No. leukocytes after 10 days [1] | No. leukocytes after 12 days [1] | % animals surviving after 5 days [2] [%] | % animals surviving after 10 days [2] [%] | % animals surviving after 12 days (survival rate) [2] [%] | increase in intracellular killing [3] [%] | increase in phagocyte activity [3] [%] | mortality rate ([2]; mitomycin C alone 50 μg/mouse peritoneal for five days, twelfth day) [%]
CC(C)CC(=O)O[C@H](CC(=O)[O-])C[N+](C)(C)C [Isovaleryl L-carnitine] | 5,750 ± 310 | 4,900 ± 220 | 3,100 ± 310 | 50 | 30 | 15 | 15 | 10 | –
CO[C@@]12[C@H](COC(N)=O)C3=C(C(=O)C(C)=C(N)C3=O)N1C[C@@H]1N[C@@H]12 [Mitomycin C] | 5,400 ± 270 | 3,000 ± 220 | 1,100 ± 190 | 50 | 20 | 0 | – | – | 100
